Reference: patent US20110166196A1, “TREATMENT AND PROPHYLAXIS OF EPILEPSY AND FEBRILE SEIZURES” (priority 2008, published 2011)

How the values were obtained:
[1] = system: excitatory synapses onto CA1 hippocampal interneurons; test: Drug-induced depression of EPSC amplitudes, whole-cell recording in hippocampal slices; assay type: cell-based, rat
From the text: (§1) The basic methods have been detailed previously (McMahon and Kauer, 1997). Sprague-Dawley rats (15-22 days old) were used in the majority of experiments. In addition, we used TRPV1^−/− mice (Caterina et al., 2000) and wild-type C57BL/6 mice aged between 15 and 21 days (Jackson Laboratory). The TRPV1^−/− mice we used have been backcrossed at least 10 times onto a C57BL/6 background and were obtained from homozygous breeding pairs. Control mice were therefore not littermates but were age-matched, wild-type C57BL/6 animals received from the same supplier in the same shipment. All animal protocols were approved by the Brown University Institutional Animal Care and Use Committee. For mouse experiments, only one brain slice per mouse was used for each experiment, so that reported ‘n’ numbers represent the number of animals. Animals were anaesthetized using halothane or isoflurane and quickly decapitated. The brain was rapidly removed and 300 μm thick coronal slices prepared and stored for at least one hour submerged on a net in artificial cerebrospinal fluid (ACSF) containing in mM: 119 NaCl, 26 NaHCO3, 2.5 KCl, 1.0 NaH2PO4, 2.5 CaCl2, 1.3 MgSO4 and 11 dextrose, saturated with 95% O2/5% CO2 (pH 7.4). Slices were then transferred to a submerged recording chamber and bathed in oxygenated ACSF (28-32° C.) containing elevated divalent cations to reduce epileptiform activity (4 mM CaCl2 and 4 mM MgCl2, replacing MgSO4). A surgical cut was made between the CA3 and CA1 regions. The storage of slices submerged on a net rather than in an interface chamber on filter paper may be important in maintaining slice health and improving the likelihood of observing LTD.
(§2) Slices were continuously perfused with ACSF warmed to 28-32° C. at a flow rate of 1-2 ml/min. Picrotoxin (100 μM) and D-AP5 (50 μM) were added to block GABAA receptor- and NMDAR-mediated synaptic transmission. Whole-cell patch clamp recordings were made from interneurons identified visually in the CA1 stratum radiatum of the hippocampus. […] Patch pipettes were filled with internal recording solution containing in mM: 117 cesium gluconate, 2.8 NaCl, 5 MgCl2, 20 HEPES, 2 ATP-Na^+, 0.3 GTP-Na^+ and 0.6 EGTA. In some experiments 2 μM capsazepine, 140 nM baicalein, or 250 μM GDPβS were also included in the intracellular patch pipette solution. In experiments with BAPTA-containing patch electrodes, EGTA was omitted from the intracellular solution and 25 or 40 mM BAPTA replaced a corresponding amount of cesium gluconate. EPSCs were stimulated at 0.1 Hz (100 μsec) using a bipolar stainless steel stimulating electrode placed in stratum radiatum at least 200 μm from the recorded cell. CA1 interneurons were voltage clamped at −65 mV (not corrected for the liquid junction potential, of ˜10 mV), and EPSCs were evoked by paired pulses with an interval of 50 msec (stimulus intensity typically 50-400 μA). In early experiments, we measured rectification ratios of EPSCs evoked at +40 mV/−60 mV in the presence of 50 μM D-AP5, measured at the time of peak inward synaptic current seen at −70 mV (Lei and McBain, 2004).
The maximal initial slope of fEPSPs was calculated using a LabVIEW-based program (National Instruments). The peak amplitude of each EPSC was measured by comparing a 10 msec time period immediately prior to the stimulus with the peak of the EPSC using this program as well. Occasionally polysynaptic responses were evoked, and in these cases, only the initial monosynaptic event was measured. To positively identify LTD, EPSCs measured every 10 seconds were averaged in 1 minute intervals. EPSC amplitude values were normalized to control pre-HFS EPSC amplitude values (baseline period of at least 5 minutes prior to HFS) and subjected to analysis of variance (ANOVA) repeated measures analysis with a post-hoc Dunnett's test (GraphPad Prism, Version 4).

[2] = system: excitatory synapses onto CA1 hippocampal interneurons; test: HFS-induced long-term depression (LTD) of EPSCs, whole-cell recording in hippocampal slices; assay type: cell-based, rat
From the text: as §1, §2
High-frequency stimulation was used to induce LTD (HFS; two 1 sec trains at 100 Hz, inter-train interval 20 sec, at 1.5 times test current intensity) with the neuron held in current-clamp mode, so that the HFS trains were delivered with the membrane potential free to vary. Receptor antagonists were added directly to the ACSF at known concentrations for at least 10 minutes prior to HFS. Control experiments were interleaved with those experiments using receptor antagonists or involving slices from TRPVl^−/− mice. The cell input resistance and series resistance were monitored throughout each experiment; cells were discarded if these values changed by more than 10% during the experiment.

hippocampal area CA1 = conditions: in vivo treatment of animals after the induction of febrile seizures; cited from earlier work
[3] = system: synapses between CA3 and CA1 pyramidal cells; test: Field EPSP recordings in hippocampal slices; assay type: cell-based, rat; conditions: 100 nM 12-(S)-HPETE; P=0.83, n=5
Protocol: The maximal initial slope of fEPSPs was calculated using a LabVIEW-based program (National Instruments). The peak amplitude of each EPSC was measured by comparing a 10 msec time period immediately prior to the stimulus with the peak of the EPSC using this program as well. Occasionally polysynaptic responses were evoked, and in these cases, only the initial monosynaptic event was measured. To positively identify LTD, EPSCs measured every 10 seconds were averaged in 1 minute intervals. EPSC amplitude values were normalized to control pre-HFS EPSC amplitude values (baseline period of at least 5 minutes prior to HFS) and subjected to analysis of variance (ANOVA) repeated measures analysis with a post-hoc Dunnett's test (GraphPad Prism, Version 4). […] EPSC amplitude values 15 to 20 minutes post-HFS were compared between control LTD experiments and those carried out either in transgenic TRPV1^−/− mice, or in the presence of drug using a t-test (unpaired, two-tailed, with Welch's correction if the variances between the groups were unequal). To calculate the effects of capsaicin, 12-(S)-HPETE or WIN 55,212-2 application on basal excitatory glutamatergic transmission, normalized EPSC amplitudes or fEPSP slopes were averaged in the final 5 minutes of drug application and compared with EPSCs/EPSPs 5 minutes prior to drug application. In addition, to measure capsaicin's effects on holding current, the peak change in holding current was measured during bath application of 3 μM capsaicin. The n-values reported refer to the number of slices. All combined data are expressed as mean±the standard error of the mean (s.e.m.).

[4] = system: excitatory synapses on interneurons; test: Drug-induced depression of EPSC amplitudes in slices from TRPV1-/- and C57BL/6 wild-type mice; assay type: cell-based, mouse; conditions: 12-(S)-HPETE 100 nM; TRPV1−/− mice; P=0.33, n=6
From the text: The basic methods have been detailed previously (McMahon and Kauer, 1997). Sprague-Dawley rats (15-22 days old) were used in the majority of experiments. In addition, we used TRPV1^−/− mice (Caterina et al., 2000) and wild-type C57BL/6 mice aged between 15 and 21 days (Jackson Laboratory). The TRPV1^−/− mice we used have been backcrossed at least 10 times onto a C57BL/6 background and were obtained from homozygous breeding pairs. Control mice were therefore not littermates but were age-matched, wild-type C57BL/6 animals received from the same supplier in the same shipment. All animal protocols were approved by the Brown University Institutional Animal Care and Use Committee. For mouse experiments, only one brain slice per mouse was used for each experiment, so that reported ‘n’ numbers represent the number of animals. Animals were anaesthetized using halothane or isoflurane and quickly decapitated. […]
Slices were continuously perfused with ACSF warmed to 28-32° C. at a flow rate of 1-2 ml/min. […] EPSCs were stimulated at 0.1 Hz (100 μsec) using a bipolar stainless steel stimulating electrode placed in stratum radiatum at least 200 μm from the recorded cell. […] In early experiments, we measured rectification ratios of EPSCs evoked at +40 mV/−60 mV in the presence of 50 μM D-AP5, measured at the time of peak inward synaptic current seen at −70 mV (Lei and McBain, 2004).
The maximal initial slope of fEPSPs was calculated using a LabVIEW-based program (National Instruments). The peak amplitude of each EPSC was measured by comparing a 10 msec time period immediately prior to the stimulus with the peak of the EPSC using this program as well. Occasionally polysynaptic responses were evoked, and in these cases, only the initial monosynaptic event was measured. To positively identify LTD, EPSCs measured every 10 seconds were averaged in 1 minute intervals. […]

TRPV1 channels = target: T1, TRPV1 channels (Mus musculus, UniProt Q704Y3); test: TRPV1 agonist-evoked inward current and depolarization in CA1 pyramidal neurons; assay type: cell-based; conditions: 12-(S)-HPETE 100 nM bath-applied
T1 construct: whole-cell recordings from acutely prepared brain slices from wild type C57BL/6 mice; from tissue; host or cells: acute coronal hippocampal slices from P14-P20 wild-type C57BL/6 mice: CA1 pyramidal neurons
T1 sequence (Q704Y3 whole entry): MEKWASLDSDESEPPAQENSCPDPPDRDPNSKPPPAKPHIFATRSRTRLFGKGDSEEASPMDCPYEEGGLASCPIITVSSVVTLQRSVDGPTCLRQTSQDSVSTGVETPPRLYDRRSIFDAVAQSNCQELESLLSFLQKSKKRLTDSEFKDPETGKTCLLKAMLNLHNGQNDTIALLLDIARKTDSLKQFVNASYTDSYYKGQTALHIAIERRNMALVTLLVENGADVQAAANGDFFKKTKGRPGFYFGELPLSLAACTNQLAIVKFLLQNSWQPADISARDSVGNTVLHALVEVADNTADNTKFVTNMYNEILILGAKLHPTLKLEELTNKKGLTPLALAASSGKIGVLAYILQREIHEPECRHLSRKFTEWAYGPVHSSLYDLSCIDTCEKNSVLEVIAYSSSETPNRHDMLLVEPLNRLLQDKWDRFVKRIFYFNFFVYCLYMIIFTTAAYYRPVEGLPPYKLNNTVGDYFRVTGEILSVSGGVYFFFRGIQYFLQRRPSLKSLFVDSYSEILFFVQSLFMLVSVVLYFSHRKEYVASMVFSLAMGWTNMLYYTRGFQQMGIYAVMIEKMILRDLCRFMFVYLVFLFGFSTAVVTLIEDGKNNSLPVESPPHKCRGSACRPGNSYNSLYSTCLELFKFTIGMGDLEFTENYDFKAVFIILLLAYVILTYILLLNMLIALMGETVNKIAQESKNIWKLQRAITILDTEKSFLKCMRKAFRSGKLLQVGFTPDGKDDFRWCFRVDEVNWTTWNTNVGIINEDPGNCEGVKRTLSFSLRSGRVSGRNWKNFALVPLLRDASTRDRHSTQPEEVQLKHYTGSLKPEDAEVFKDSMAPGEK

[5] = system: excitatory synapses onto CA1 hippocampal interneurons; test: Synaptic failure analysis using minimal stimulation; assay type: cell-based, rat; conditions: 12-(S)-HPETE 100 nM; pre-application 35.2±1.9%; n=6
Protocol: as §2, with “CA1 interneurons were voltage clamped at −65 mV (not corrected for the liquid junction potential, of ˜10 mV), and EPSCs were evoked by paired pulses with an interval of 50 msec (stimulus intensity typically 50-400 μA).” left out

[6] = system: CA1 pyramidal neurons from trpv1−/− mice; test: Residual heat-activated current in CA1 pyramidal neurons from trpv1-/- mice; assay type: cell-based, mouse; conditions: 10 μM ruthenium red bath; trpv1−/− CA1 neurons (34.6±8.4 pA without); n=5

Cc1c(C(=O)NN2CCCCC2)nn(-c2ccc(Cl)cc2Cl)c1-c1ccc(Cl)cc1 [SR141716A]
EPSC amplitudes after 10-15 minutes in capsaicin and in the presence of SR141716A ([1]; SR141716A 2 μM pretreatment, capsaicin 1 μM, n=6): 102.8±9.2 % of pre-capsaicin control values | EPSC amplitudes after 10-15 minutes in 12-(S)-HPETE and in the presence of SR141716A ([1]; SR141716A 2 μM, 12-(S)-HPETE 100 nM, n=5): 106.9±5.5 % of pre-12-(S)-HPETE control values | EPSC amplitudes 15-20 minutes post-HFS ([2]; SR141716A 2-5 μM bath-applied, n=10, control LTD 62.0±5.3%): 110.6±19.3 % of control values before HFS | emergence of long-term limbic hyperexcitability (hippocampal area CA1): prevented the emergence of long-term limbic hyperexcitability | hyperexcitability in hippocampal area CA1 (hippocampal area CA1): reduced hyperexcitability in hippocampal area CA1

O=c1cc(-c2ccccc2)oc2cc(O)c(O)c(O)c12 [baicalein]
cells with potentiation (greater than 125% of control 20 minutes following the HFS) ([2]; baicalein 500 nM bath-applied): four of ten | EPSC amplitudes 15-20 minutes post-HFS ([2]; baicalein 500 nM bath-applied, n=10): 129.6±20.3 % of control values before HFS | cells recorded from with intracellular baicalein that had LTD ([2]; patch pipette solution containing 140 nM baicalein): 4 of 12 | EPSC amplitudes 15-20 minutes post-HFS with intracellular baicalein ([2]; patch pipette solution containing 140 nM baicalein, n=12): 110.8±15.4 % of control values before HFS

O=C(O)CN(CC(=O)O)c1ccccc1OCCOc1ccccc1N(CC(=O)O)CC(=O)O [BAPTA, 1,2-bis(o-aminophenoxy)ethane-N,N,N′,N′-tetraacetic acid]
cells recorded from with intracellular BAPTA that had LTD ([2]; patch pipette solution containing 25-40 mM BAPTA): 6 of 14 | EPSC amplitudes 15-20 minutes post-HFS with intracellular BAPTA ([2]; patch pipette solution containing 25-40 mM BAPTA, n=14): 90.5±8.5 % of control values before HFS

Cc1c(C(=O)c2cccc3ccccc23)c2cccc3c2n1[C@H](CN1CCOCC1)CO3 [WIN 55,212-2]
EPSC amplitudes after 10-15 minutes in WIN 55,212-2 alone ([1]; WIN 55,212-2 1 μM bath-applied, n=14): 66.1±7.9 % of pre-drug control values | EPSC amplitudes 15-20 minutes post-HFS ([2]; pre-treatment with WIN 55,212-2 1 μM for at least ten minutes, n=12): 51.3±7.5 % of control values in WIN55,212-2 before HFS

C=C(C)[C@]12C[C@@H](C)[C@@]34O[C@](Cc5ccccc5)(O[C@@H]1[C@@H]3C=C(COC(=O)Cc1cc(I)c(O)c(OC)c1)C[C@]1(O)C(=O)C(C)=C[C@@H]41)O2 [5′-Iodoresiniferatoxin]
EPSC amplitudes 15-20 minutes post-HFS in 5′-Iodoresiniferatoxin ([2]; 5′-Iodoresiniferatoxin 100 nM bath applied prior to HFS, n=7): 96.2±13.6 % of control values before HFS

Cc1c(C(=O)NN2CCCCC2)nn(-c2ccc(Cl)cc2Cl)c1-c1ccc(I)cc1 [AM251]
EPSC amplitudes after 10-15 minutes in both WIN 55,212-2 and AM251 ([1]; AM251 2 μM applied before WIN 55,212-2 1 μM, n=5): 101.7±8.9 % of pre-WIN 55,212-2 control values | EPSC amplitudes 15-20 minutes post-HFS ([2]; AM251 2 μM bath-applied, n=8): 48.6±5.3 % of control values before HFS

CCCCC/C=C\C[C@@H](/C=C/C=C\C/C=C\CCCC(=O)O)OO [12-(S)-HPETE, 12-(S)-Hydroperoxyeicosa-5Z, 8Z, 10E, 14Z-tetraenoic acid]
fEPSP slopes after 10-15 minutes in 12-(S)-HPETE [3]: 99.0±3.5 % of pre-drug control values | EPSC amplitudes after 10-15 minutes in 12-(S)-HPETE ([1]; 12-(S)-HPETE 100 nM bath-applied, n=8): 40.6±11.7 % of pre-drug control values | EPSC amplitudes after 10-15 minutes in 12-(S)-HPETE in TRPV1−/− mice [4]: 109.0±6.8 % of pre-drug control values | 12-(S)-HPETE-evoked current in CA1 neuron (TRPV1 channels): induces an inward current | average synaptic failures in 12-(S)-HPETE [5]: 89.7±3.0% | EPSC amplitudes 15-20 minutes post-HFS ([2]; HFS after 12-(S)-HPETE 100 nM (occlusion), n=6): 98.7±15.3 % of control values in 12-(S)-HPETE before HFS

N.N.N.N.N.N.N.N.N.N.N.N.N.N.[Cl-].[Cl-].[Cl-].[Cl-].[Cl-].[Cl-].[O-2].[O-2].[Ru+3].[Ru+3].[Ru+4] [ruthenium red]
peak heat-evoked inward current in ruthenium red [6]: 9.3±7.7 pA

COC(=O)[C@@H](N)CCCNC(=N)N[N+](=O)[O-] [L-NAME]
EPSC amplitudes 15-20 minutes post-HFS ([2]; 200 μM L-NAME bath applied 10 minutes prior to HFS, n=5): 46.3±10.4 % of control values before HFS

N[C@H](CCCP(=O)(O)O)C(=O)O [D-AP5, D(−)-2-amino-5-phosphonovaleric acid]
EPSC amplitudes 15-20 minutes post-HFS ([2]; D-AP5 50 μM in bath, P<0.001, n=26, LTD not prevented): 62.0±5.3 % of control values before HFS

Nc1nc2c(ncn2[C@@H]2O[C@H](COP(=O)(O)OP(O)(O)=S)[C@@H](O)[C@H]2O)c(=O)[nH]1 [GDPβS]
cells recorded from with intracellular GDPβS that had LTD ([2]; patch pipette solution containing 250 μM GDPβS): 6 of 10 | EPSC amplitudes 15-20 minutes post-HFS with intracellular GDPβS ([2]; patch pipette solution containing 250 μM GDPβS, n=10): 88.2±10.6 % of control values before HFS
